In paper PMC5811606, “Characterization of ^111In-labeled Glucose-Dependent Insulinotropic Polypeptide as a Radiotracer for Neuroendocrine Tumors” (Scientific Reports, 2018):
“Also recorded” adds a separate entry of the source. Where two headings read alike, the source gives them in different places.

Assays:
[1] = Serum stability analysis in human serum; type: in vitro ADME; settings: human serum (1:10), 37 °C
Experimental: [Lys^37(DTPA)]N-acetyl-GIP1-42 (MW = 5422 g/mol) and GIP1-42 (MW = 5046.7 g/mol) were purchased from Peptide Specialty Laboratories (PSL GmbH, Heidelberg, Germany). DTPA was conjugated to the ε-amino group of the Lysine (K37) and the N-terminal tyrosine was acetylated to reduce its susceptibility to […] (Fig. 1). [Lys^37(DTPA)]GIP1-42 was dissolved in 0.5 M MES (2-(N-morpholino)ethanesulfonic acid) buffer, pH 5.5 and stored at 4 °C until use. […] Radiochemical purity of [Lys^37(^111In-DTPA)]N-acetyl-GIP1-42 was determined by instant thin-layer chromatography (ITLC) (ITLC-SG, Agilent Technologies, Lake Forest, CA, USA), using 0.1 M EDTA in 0.1 M NH4Ac (Sigma Aldrich), pH 5.5 as a mobile agent and by reversed-phase high performance liquid chromatography (RP-HPLC) using an Eclipse XDB C18 column (Agilent Technologies). […]
For the serum stability analysis, [Lys^37(DTPA)]N-acetyl-GIP1-42 was labeled with [^111In]Cl3 at a specific activity of 27 GBq/µmol. Radiochemical purity of [Lys^37(^111In-DTPA)]N-acetyl-GIP1-42 directly after labeling was determined by ITLC-SG (Agilent Technologies) and RP-HPLC as described above. […] This mixture was centrifuged and after dilution, the radiochemical purity of the compound in the supernatant was analyzed using ITLC and RP-HPLC as described above.

[2] = Biodistribution study, NES2Y tumor mice; type: in vivo; settings: female, mouse, iv, total radioactivity, i.v., 0.2 µg; for tissue uptake at 1 h: BALB/c nude; for tissue to tissue ratio at 1 h: NES2Y tumor BALB/c nude mice
Experimental: All animal experiments were approved by the Animal Welfare Body of the Radboud University, Nijmegen, The Netherlands and carried out in accordance with their guidelines. Six to eight weeks old, female BALB/c nude mice and C3H mice were purchased from Janvier labs (Le Genest Saint Isle, France). For all in vivo experiments, 6-8 weeks old female BALB/c nude mice were injected subcutaneously in the right shoulder with 0.2 ml of a 2.5 × 10^7 cells/ml suspension of BHK-GIPR transfected cells or with 0.2 ml of a 2.5 × 10^7 cells/ml suspension of NES2Y cells mixed with matrigel (2:1) in the right shoulder. When the tumor reached a diameter of 2-5 mm, mice were randomly divided in groups.
BALB/c nude mice bearing BHK-GIPR transfected tumors were injected intravenously with approximately 3 MBq (peptide dose 0.2 µg = 0.04 nmol) of [Lys^37(^111In-DTPA)]N-acetyl-GIP1-42 via the tail vein. At various time points after injection (1, 4 and 24 hours), mice were euthanized by CO2/O2 suffocation and blood, tumor and other relevant tissues were dissected, weighed and measured in a well type gamma counter. The percentage injected dose per gram (%ID/g) was calculated for each tissue. To determine whether the GIP1-42 uptake was GIPR mediated, 25 µg of unlabeled GIP1-42 was co-injected in a separate group (n = 5) and mice were euthanized four hours post-injection. BALB/c nude mice bearing NES2Y tumors (n = 5) were injected intravenously with approximately 3 MBq (peptide dose 0.2 µg = 0.04 nmol) of [Lys^37(^111In-DTPA)]N-acetyl-GIP1-42 via the tail vein. One hour after injection, mice were euthanized by CO2/O2 suffocation and blood, tumor and other relevant tissues were dissected, weighed and measured in a well type gamma counter. The percentage injected dose per gram (%ID/g) was determined for each tissue. To determine whether the GIP1-42 uptake was GIPR mediated, 25 µg of unlabeled GIP1-42 was co-injected in a separate group (n = 2) and mice were euthanized one hours post-injection.

SMILES: CC[C@H](C)[C@H](NC(=O)[C@H](CO)NC(=O)[C@H](Cc1ccc(O)cc1)NC(=O)[C@H](CC(=O)O)NC(=O)[C@H](CO)NC(=O)[C@@H](NC(=O)[C@H](Cc1ccccc1)NC(=O)[C@@H](NC(=O)CNC(=O)[C@H](CCC(=O)O)NC(=O)[C@H](C)NC(=O)[C@H](Cc1ccc(O)cc1)NC(C)=O)[C@@H](C)O)[C@@H](C)CC)C(=O)N[C@@H](C)C(=O)N[C@@H](CCSC)C(=O)N[C@@H](CC(=O)O)C(=O)N[C@@H](CCCCN)C(=O)N[C@H](C(=O)N[C@@H](Cc1c[nH]cn1)C(=O)N[C@@H](CCC(N)=O)C(=O)N[C@@H](CCC(N)=O)C(=O)N[C@@H](CC(=O)O)C(=O)N[C@@H](Cc1ccccc1)C(=O)N[C@H](C(=O)N[C@@H](CC(N)=O)C(=O)N[C@@H](Cc1c[nH]c2ccccc12)C(=O)N[C@@H](CC(C)C)C(=O)N[C@@H](CC(C)C)C(=O)N[C@@H](C)C(=O)N[C@@H](CCC(N)=O)C(=O)N[C@@H](CCCCN)C(=O)NCC(=O)N[C@@H](CCCCN)C(=O)N[C@@H](CCCCN)C(=O)N[C@@H](CC(N)=O)C(=O)N[C@@H](CC(=O)O)C(=O)N[C@@H](Cc1c[nH]c2ccccc12)C(=O)N[C@@H](CCCCNC(=O)CN(CCN(CCN(CC(=O)O)CC(=O)O)CC(=O)O)CC(=O)O)C(=O)N[C@@H](Cc1c[nH]cn1)C(=O)N[C@@H](CC(N)=O)C(=O)N[C@H](C(=O)N[C@H](C(=O)N[C@@H](CCC(N)=O)C(=O)O)[C@@H](C)O)[C@@H](C)CC)C(C)C)[C@@H](C)CC [[Lys^37(^111In-DTPA)]N-acetyl-GIP1-42, metal not drawn]
- remaining at 24 h ([1]; 24 hours, acetonitrile precipitation, RP-HPLC, read-out: activity found as intact radiolabeled peptide): 73%
- stability in human serum ([1]; up to 4 hours, ITLC and RP-HPLC): remained intact; also recorded: remained stable
- tissue uptake at 1 h ([2]; NES2Y tumor, 0.2 ug, 1 h p.i., mean n=5, read-out: Tumor uptake): 0.7 ± 0.2 %ID/g
- tissue uptake at 1 h ([2]; NES2Y tumor, 1 h p.i. + xs (25 µg unlabeled GIP1-42), mean, n=5, read-out: Tumor uptake): 0.6 ± 0.01 %ID/g
- tissue uptake at 1 h ([2]; duodenum, 0.2 ug, 1 h p.i., mean n=5, read-out: Duodenum uptake): 0.42 %ID/g
- tissue uptake at 1 h ([2]; duodenum, 1 h p.i. + xs (25 µg unlabeled GIP1-42), mean, n=5, read-out: Duodenum uptake): 0.369 %ID/g
- tissue uptake at 1 h ([2]; heart, 0.2 ug, 1 h p.i., mean n=5, read-out: Heart uptake): 0.135 %ID/g
- tissue uptake at 1 h ([2]; heart, 1 h p.i. + xs (25 µg unlabeled GIP1-42), mean, n=5, read-out: Heart uptake): 0.103 %ID/g
- tissue uptake at 1 h ([2]; kidney, 0.2 ug, 1 h p.i., mean n=5, read-out: Kidney uptake): 184 %ID/g
- tissue uptake at 1 h ([2]; kidney, 1 h p.i. + xs (25 µg unlabeled GIP1-42), mean, n=5, read-out: Kidney uptake): 180 %ID/g
- tissue uptake at 1 h ([2]; liver, 0.2 ug, 1 h p.i., mean n=5, read-out: Liver uptake): 1.1 %ID/g
- tissue uptake at 1 h ([2]; liver, 1 h p.i. + xs (25 µg unlabeled GIP1-42), mean, n=5, read-out: Liver uptake): 0.827 %ID/g
- tissue uptake at 1 h ([2]; lung, 0.2 ug, 1 h p.i., mean n=5, read-out: Lung uptake): 0.485 %ID/g
- tissue uptake at 1 h ([2]; lung, 1 h p.i. + xs (25 µg unlabeled GIP1-42), mean, n=5, read-out: Lung uptake): 0.474 %ID/g
- tissue uptake at 1 h ([2]; muscle, 0.2 ug, 1 h p.i., mean n=5, read-out: Muscle uptake): 0.069 %ID/g
- tissue uptake at 1 h ([2]; muscle, 1 h p.i. + xs (25 µg unlabeled GIP1-42), mean, n=5, read-out: Muscle uptake): 0.057 %ID/g
- tissue uptake at 1 h ([2]; pancreas, 0.2 ug, 1 h p.i., mean n=5, read-out: Pancreas uptake): 0.201 %ID/g
- tissue uptake at 1 h ([2]; pancreas, 1 h p.i. + xs (25 µg unlabeled GIP1-42), mean, n=5, read-out: Pancreas uptake): 0.158 %ID/g
- tissue uptake at 1 h ([2]; spleen, 0.2 ug, 1 h p.i., mean n=5, read-out: Spleen uptake): 0.462 %ID/g
- tissue uptake at 1 h ([2]; spleen, 1 h p.i. + xs (25 µg unlabeled GIP1-42), mean, n=5, read-out: Spleen uptake): 0.341 %ID/g
- tissue uptake at 1 h ([2]; stomach, 0.2 ug, 1 h p.i., mean n=5, read-out: Stomach uptake): 0.336 %ID/g
- tissue uptake at 1 h ([2]; stomach, 1 h p.i. + xs (25 µg unlabeled GIP1-42), mean, n=5, read-out: Stomach uptake): 0.283 %ID/g
- tissue uptake at 1 h ([2]; whole blood, 0.2 ug, 1 h p.i., mean n=5, read-out: Blood uptake): 0.175 %ID/g
- tissue uptake at 1 h ([2]; whole blood, 1 h p.i. + xs (25 µg unlabeled GIP1-42), mean, n=5, read-out: Blood uptake): 0.214 %ID/g
- tissue to tissue ratio at 1 h ([2]; tumor and blood, 0.2 ug, 1 h p.i., mean n=5, read-out: Tumor/Blood): 3.96
- tissue to tissue ratio at 1 h ([2]; tumor and blood, 1 h p.i. + xs (25 µg unlabeled GIP1-42), mean, n=5, read-out: Tumor/Blood): 3.01
- tissue to tissue ratio at 1 h ([2]; tumor and heart, 0.2 ug, 1 h p.i., mean n=5, read-out: Tumor/Heart): 4.83
- tissue to tissue ratio at 1 h ([2]; tumor and heart, 1 h p.i. + xs (25 µg unlabeled GIP1-42), mean, n=5, read-out: Tumor/Heart): 6.09
- tissue to tissue ratio at 1 h ([2]; tumor and kidney, 0.2 ug, 1 h p.i., mean n=5, read-out: Tumor/Kidney): 0.004
- tissue to tissue ratio at 1 h ([2]; tumor and kidney, 1 h p.i. + xs (25 µg unlabeled GIP1-42), mean, n=5, read-out: Tumor/Kidney): 0.004
- tissue to tissue ratio at 1 h ([2]; tumor and lung, 0.2 ug, 1 h p.i., mean n=5, read-out: Tumor/Lung): 1.38
- tissue to tissue ratio at 1 h ([2]; tumor and lung, 1 h p.i. + xs (25 µg unlabeled GIP1-42), mean, n=5, read-out: Tumor/Lung): 1.33
- tissue to tissue ratio at 1 h ([2]; tumor and muscle, 0.2 ug, 1 h p.i., mean n=5, read-out: Tumor/Muscle): 9.43
- tissue to tissue ratio at 1 h ([2]; tumor and muscle, 1 h p.i. + xs (25 µg unlabeled GIP1-42), mean, n=5, read-out: Tumor/Muscle): 11.1
